ChEMBL document CHEMBL4387711, “Discovery of niclosamide and its O-alkylamino-tethered derivatives as potent antibacterial agents against carbapenemase-producing and/or colistin resistant Enterobacteriaceae isolates” (2019)
Activity calls are given as the source filed them. The calls are words filed in the database; no cut-off is given here.

Key:
Klebsiella aerogenes [1] = test: Antibacterial activity against colistin-resistant Enterobacter aerogenes 3 assessed as inhibition of growth at 50 uM after 18 hrs; format: functional, organism-based
Klebsiella aerogenes [2] = test: Antibacterial activity against colistin-resistant Enterobacter aerogenes 53 assessed as inhibition of growth at 50 uM after 18 hrs; format: functional, organism-based
Klebsiella pneumoniae [3] = test: Antibacterial activity against colistin-susceptible OXA-48/CTX-M-15/carbapenemase-producing Klebsiella pneumoniae 28 assessed as inhibition of growth at 50 uM after 18 hrs; format: functional, organism-based
Klebsiella pneumoniae [4] = test: Antibacterial activity against colistin-susceptible NDM-1/carbapenemase-producing Klebsiella pneumoniae assessed as inhibition of growth at 50 uM after 18 hrs; format: functional, organism-based
Klebsiella pneumoniae [5] = test: Antibacterial activity against colistin-resistant OXA-48/CTX-M-15/carbapenemase-producing Klebsiella pneumoniae 29 assessed as inhibition of growth at 50 uM after 18 hrs; format: functional, organism-based
Klebsiella pneumoniae [6] = test: Antibacterial activity against colistin-resistant VIM1/DHAI/carbapenemase-producing Klebsiella pneumoniae 21 assessed as inhibition of growth at 50 uM after 18 hrs; format: functional, organism-based
Enterobacter cloacae [7] = test: Antibacterial activity against colistin-resistant Enterobacter cloacae 190 assessed as inhibition of growth at 50 uM after 18 hrs; format: functional, organism-based
Enterobacter cloacae [8] = test: Antibacterial activity against colistin-resistant Enterobacter cloacae 263 assessed as inhibition of growth at 50 uM after 18 hrs; format: functional, organism-based
Enterobacter cloacae [9] = test: Antibacterial activity against colistin-resistant Enterobacter cloacae 32 assessed as inhibition of growth at 50 uM after 18 hrs; format: functional, organism-based
Enterobacter cloacae [10] = test: Antibacterial activity against colistin-resistant Enterobacter cloacae 142 assessed as inhibition of growth at 50 uM after 18 hrs; format: functional, organism-based
Escherichia coli [11] = test: Antibacterial activity against colistin-susceptible NDM1/KPC-producing Escherichia coli assessed as inhibition of growth at 50 uM after 18 hrs; format: functional, organism-based
Enterobacter cloacae [12] = test: Antibacterial activity against colistin-resistant Enterobacter cloacae 297 assessed as inhibition of growth at 50 uM after 18 hrs; format: functional, organism-based
Enterobacter cloacae [13] = test: Antibacterial activity against colistin-resistant Enterobacter cloacae 272 assessed as inhibition of growth at 50 uM after 18 hrs; format: functional, organism-based
Klebsiella pneumoniae [14] = test: Antibacterial activity against colistin-susceptible VIM1/carbapenemase-producing Klebsiella pneumoniae 07 assessed as inhibition of growth at 50 uM after 18 hrs; format: functional, organism-based
Klebsiella pneumoniae [15] = test: Antibacterial activity against Klebsiella pneumoniae CECT-997 assessed as inhibition of growth at 50 uM after 18 hrs; format: functional, organism-based
Enterobacter cloacae [16] = test: Antibacterial activity against colistin-resistant Enterobacter cloacae 280 assessed as inhibition of growth at 50 uM after 18 hrs; format: functional, organism-based
Klebsiella pneumoniae [17] = test: Antibacterial activity against colistin-susceptible OXA-48/CTX-M-15/carbapenemase-producing Klebsiella pneumoniae 28 by broth microdilution method; format: functional
Enterobacter cloacae [18] = test: Antibacterial activity against colistin-resistant Enterobacter cloacae 297 by broth microdilution method; format: functional
Klebsiella pneumoniae [19] = test: Antibacterial activity against carbapenemase/Klebsiella pneumoniae CECT-997 by broth microdilution method; format: functional
Enterobacter cloacae [20] = test: Antibacterial activity against colistin-resistant Enterobacter cloacae 280 by broth microdilution method; format: functional
Escherichia coli [21] = test: Antibacterial activity against colistin-susceptible NDM1/KPC-producing Escherichia coli by broth microdilution method; format: functional
Klebsiella pneumoniae [22] = test: Antibacterial activity against colistin-susceptible NDM-1/carbapenemase-producing Klebsiella pneumoniae by broth microdilution method; format: functional
Escherichia coli [23] = test: Synergistic antibacterial activity against colistin-susceptible NDM1/KPC-producing Escherichia coli in presence of colistin by checkerboard assay; format: functional

Compound | growth inhibition (GI) (Klebsiella aerogenes [1]) | growth inhibition (GI) (Klebsiella aerogenes [2]) | growth inhibition (GI) (Klebsiella pneumoniae [3]) | growth inhibition (GI) (Klebsiella pneumoniae [4]) | growth inhibition (GI) (Klebsiella pneumoniae [5]) | growth inhibition (GI) (Klebsiella pneumoniae [6]) | growth inhibition (GI) (Enterobacter cloacae [7]) | growth inhibition (GI) (Enterobacter cloacae [8]) | growth inhibition (GI) (Enterobacter cloacae [9]) | growth inhibition (GI) (Enterobacter cloacae [10]) | growth inhibition (GI) (Escherichia coli [11]) | growth inhibition (GI) (Enterobacter cloacae [12]) | growth inhibition (GI) (Enterobacter cloacae [13]) | growth inhibition (GI) (Klebsiella pneumoniae [14]) | growth inhibition (GI) (Klebsiella pneumoniae [15]) | growth inhibition (GI) (Enterobacter cloacae [16]) | also measured
O=C(Nc1ccc([N+](=O)[O-])cc1Cl)c1cc(Cl)ccc1OCCN1CCCCC1 | inactive | inactive | inactive | inactive | inactive | inactive | inactive | inactive | inactive | inactive | inactive | inactive | inactive | inactive | inactive | inactive | 
O=C(Nc1ccc([N+](=O)[O-])cc1Cl)c1cc(Cl)ccc1OCCN1CCNCC1 | inactive | inactive | inactive | inactive | inactive | inactive | inactive | inactive | inactive | inactive | inactive | inactive | inactive | inactive | inactive | inactive | 
NCCOCCOc1ccc(Cl)cc1C(=O)Nc1ccc([N+](=O)[O-])cc1Cl | inactive | inactive | inactive | inactive | inactive | inactive | inactive | inactive | inactive | inactive | Active | Active | inactive | inactive | inactive | inactive | MIC (Klebsiella pneumoniae [17]): inactive; MIC (Enterobacter cloacae [18]): > 15 µg/mL; MIC (Klebsiella pneumoniae [19]): inactive; MIC (Enterobacter cloacae [20]): inactive; MIC (Escherichia coli [21]): > 15 µg/mL; MIC (Klebsiella pneumoniae [22]): inactive
O=C(Nc1ccc([N+](=O)[O-])cc1Cl)c1cc(Cl)ccc1OCCN1CCOCC1 | inactive | inactive | inactive | inactive | inactive | inactive | inactive | inactive | inactive | inactive | inactive | inactive | inactive | inactive | inactive | inactive | 
CN1CCN(CCOc2ccc(Cl)cc2C(=O)Nc2ccc([N+](=O)[O-])cc2Cl)CC1 | inactive | inactive | inactive | inactive | inactive | inactive | inactive | inactive | inactive | inactive | inactive | inactive | inactive | inactive | inactive | inactive | 
CN(C)CCOc1ccc(Cl)cc1C(=O)Nc1ccc([N+](=O)[O-])cc1Cl | inactive | inactive | inactive | inactive | inactive | inactive | inactive | inactive | inactive | inactive | inactive | inactive | inactive | inactive | inactive | inactive | 
NCCOc1ccc(Cl)cc1C(=O)Nc1ccc([N+](=O)[O-])cc1Cl | inactive | inactive | inactive | inactive | inactive | inactive | inactive | inactive | inactive | inactive | inactive | inactive | inactive | inactive | inactive | inactive | 
NCCCOc1ccc(Cl)cc1C(=O)Nc1ccc([N+](=O)[O-])cc1Cl | inactive | inactive | inactive | inactive | inactive | inactive | inactive | inactive | inactive | inactive | inactive | inactive | inactive | inactive | inactive | inactive | 
O=C(Nc1ccc([N+](=O)[O-])cc1Cl)c1cc(Cl)ccc1OC1CCNCC1 | inactive | inactive | inactive | inactive | inactive | inactive | inactive | inactive | inactive | inactive | inactive | inactive | inactive | inactive | inactive | inactive | 
CN1CCC(Oc2ccc(Cl)cc2C(=O)Nc2ccc([N+](=O)[O-])cc2Cl)CC1 | inactive | inactive | inactive | inactive | inactive | inactive | inactive | inactive | inactive | inactive | inactive | inactive | inactive | inactive | inactive | inactive | 
CC[C@H](N)COc1ccc(Cl)cc1C(=O)Nc1ccc([N+](=O)[O-])cc1Cl | inactive | inactive | inactive | inactive | inactive | inactive | inactive | inactive | inactive | inactive | Active | inactive | inactive | inactive | inactive | inactive | MIC (Klebsiella pneumoniae [17]): inactive; MIC (Enterobacter cloacae [18]): inactive; MIC (Klebsiella pneumoniae [19]): inactive; fractional inhibitory concentration index (FICI) (Escherichia coli [23]): 0.5; MIC (Enterobacter cloacae [20]): inactive; MIC (Escherichia coli [21]): > 15 µg/mL; MIC (Klebsiella pneumoniae [22]): inactive
